Data published in ChEMBL document CHEMBL4265944, “Novel amide derivatives of 1,3-dimethyl-2,6-dioxopurin-7-yl-alkylcarboxylic acids as multifunctional TRPA1 antagonists and PDE4/7 inhibitors: A new approach for the treatment of pain” (Eur J Med Chem, 2018).
The source made the active and inactive calls. No cut-off for these calls is given here.

Assays:
Rattus norvegicus [1] = assay: Antiallodynic activity in Wistar rat assessed as reduction in oxaliplatin-induced neuropathic pain in late phase by measuring paw withdrawal force at 5 to 10 mg/kg, ip measured after 60 mins by Von Frey test; type: functional, organism-based
Rattus norvegicus [2] = assay: Antiallodynic activity in Wistar rat assessed as reduction in oxaliplatin-induced neuropathic pain in early phase by measuring paw withdrawal force at 5 to 10 mg/kg, ip measured after 60 mins by Von Frey test; type: functional, organism-based
[3] = biological target: 3',5'-cyclic-AMP phosphodiesterase 4B (Homo sapiens, UniProt Q07343); assay: Inhibition of recombinant human PDE4B using cAMP as substrate after 10 mins by PDE-Glo Phosphodiesterase Assay
3',5'-cyclic-AMP phosphodiesterase 4B, sequence (Q07343 whole entry): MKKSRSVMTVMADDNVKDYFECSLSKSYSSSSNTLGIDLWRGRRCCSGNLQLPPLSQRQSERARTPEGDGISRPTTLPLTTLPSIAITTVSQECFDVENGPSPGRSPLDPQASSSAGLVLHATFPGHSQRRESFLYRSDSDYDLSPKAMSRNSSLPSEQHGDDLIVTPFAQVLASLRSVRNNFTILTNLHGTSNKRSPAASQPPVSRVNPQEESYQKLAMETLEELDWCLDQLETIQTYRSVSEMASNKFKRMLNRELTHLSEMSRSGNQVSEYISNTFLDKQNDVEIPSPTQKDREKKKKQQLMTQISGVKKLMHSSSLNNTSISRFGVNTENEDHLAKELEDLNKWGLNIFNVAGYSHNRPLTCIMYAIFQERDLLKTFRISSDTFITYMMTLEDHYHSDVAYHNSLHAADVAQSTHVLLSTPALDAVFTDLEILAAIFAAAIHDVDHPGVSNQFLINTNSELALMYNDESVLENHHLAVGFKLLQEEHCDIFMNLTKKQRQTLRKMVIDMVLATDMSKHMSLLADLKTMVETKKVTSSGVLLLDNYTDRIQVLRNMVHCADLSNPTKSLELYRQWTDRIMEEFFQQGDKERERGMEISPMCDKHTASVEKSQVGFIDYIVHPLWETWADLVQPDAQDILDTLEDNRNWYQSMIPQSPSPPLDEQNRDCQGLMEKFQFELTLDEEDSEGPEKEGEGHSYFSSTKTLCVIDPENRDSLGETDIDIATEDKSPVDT

[4] = biological target: High affinity 3',5'-cyclic-AMP phosphodiesterase 7A (Homo sapiens, UniProt Q13946); assay: Inhibition of recombinant human PDE7A using cAMP as substrate after 10 mins by PDE-Glo Phosphodiesterase Assay
High affinity 3',5'-cyclic-AMP phosphodiesterase 7A, sequence (Q13946 whole entry): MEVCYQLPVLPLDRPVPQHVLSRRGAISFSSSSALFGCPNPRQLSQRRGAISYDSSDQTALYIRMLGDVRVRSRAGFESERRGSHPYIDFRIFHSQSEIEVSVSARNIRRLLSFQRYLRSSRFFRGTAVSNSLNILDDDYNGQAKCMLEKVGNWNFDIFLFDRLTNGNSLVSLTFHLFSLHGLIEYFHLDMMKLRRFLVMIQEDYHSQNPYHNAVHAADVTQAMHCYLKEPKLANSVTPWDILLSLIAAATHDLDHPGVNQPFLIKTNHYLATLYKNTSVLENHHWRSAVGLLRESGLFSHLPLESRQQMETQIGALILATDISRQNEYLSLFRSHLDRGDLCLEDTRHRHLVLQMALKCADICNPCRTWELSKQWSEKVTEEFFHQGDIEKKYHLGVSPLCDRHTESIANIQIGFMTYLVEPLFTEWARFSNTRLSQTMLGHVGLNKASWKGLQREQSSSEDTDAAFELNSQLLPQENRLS

[5] = biological target: Transient receptor potential cation channel subfamily A member 1 (Homo sapiens) (UniProt O75762); assay: Antagonist activity at human TRPA1 expressed in HEK293 cells assessed as decrease in flufenamic acid-evoked increase in intracellular calcium level at 100 uM measured for 180 secs with 1 sec interval by Fluo4-AM dye-based fluorescence assay relative to control; type: cell-based
Transient receptor potential cation channel subfamily A member 1 (Homo sapiens), sequence (O75762 whole entry): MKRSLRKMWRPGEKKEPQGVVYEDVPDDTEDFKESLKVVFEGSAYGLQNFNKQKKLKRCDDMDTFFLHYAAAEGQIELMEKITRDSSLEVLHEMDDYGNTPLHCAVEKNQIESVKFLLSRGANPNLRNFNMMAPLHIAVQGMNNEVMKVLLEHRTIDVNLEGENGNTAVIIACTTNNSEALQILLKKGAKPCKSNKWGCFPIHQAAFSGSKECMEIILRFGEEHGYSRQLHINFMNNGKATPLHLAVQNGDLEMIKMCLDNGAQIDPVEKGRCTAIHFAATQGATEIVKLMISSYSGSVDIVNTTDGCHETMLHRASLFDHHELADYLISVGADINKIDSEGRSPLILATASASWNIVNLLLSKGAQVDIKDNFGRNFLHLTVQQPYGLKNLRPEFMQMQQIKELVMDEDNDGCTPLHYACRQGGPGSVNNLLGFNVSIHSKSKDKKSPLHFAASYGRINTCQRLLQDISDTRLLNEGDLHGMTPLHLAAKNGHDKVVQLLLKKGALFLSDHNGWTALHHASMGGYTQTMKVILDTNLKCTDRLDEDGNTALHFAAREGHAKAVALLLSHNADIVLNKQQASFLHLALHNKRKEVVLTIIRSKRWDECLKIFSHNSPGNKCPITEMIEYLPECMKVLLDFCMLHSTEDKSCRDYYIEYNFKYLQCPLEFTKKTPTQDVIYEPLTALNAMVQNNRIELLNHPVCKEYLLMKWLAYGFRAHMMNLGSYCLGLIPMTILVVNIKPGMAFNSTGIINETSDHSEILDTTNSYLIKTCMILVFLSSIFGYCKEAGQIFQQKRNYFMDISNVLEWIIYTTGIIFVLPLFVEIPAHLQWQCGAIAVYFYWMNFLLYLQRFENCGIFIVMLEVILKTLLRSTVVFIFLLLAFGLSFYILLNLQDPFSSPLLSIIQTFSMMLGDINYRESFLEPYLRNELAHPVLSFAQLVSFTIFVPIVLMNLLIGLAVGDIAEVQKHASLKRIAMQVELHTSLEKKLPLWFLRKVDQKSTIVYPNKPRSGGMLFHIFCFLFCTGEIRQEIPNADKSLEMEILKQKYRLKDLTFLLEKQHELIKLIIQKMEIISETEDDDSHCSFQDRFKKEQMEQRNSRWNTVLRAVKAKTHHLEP

Mus musculus [6] = assay: Antiinflammatory activity in formalin-induced nociception ip dosed Swiss CD-1 mouse model assessed as time spent on licking or biting formalin injected right hind paw […] measured during phase 2; type: functional; conditions: Swiss CD-1, ip
Mus musculus [7] = assay: Antiinflammatory activity in formalin-induced nociception Swiss CD-1 mouse model assessed as time spent on licking or biting formalin injected right hind paw during neurogenic phase at 2.5 mg/kg, ip measured during phase 1 (reference value: 97 +/- 6.86 sec); type: functional
Mus musculus [8] = assay: Antiinflammatory activity in formalin-induced nociception Swiss CD-1 mouse model assessed as time spent on licking or biting formalin injected right hind paw during neurogenic phase at 5 mg/kg, ip measured during phase 2 (reference value: 158.3 +/- 12.34 sec); type: functional
Rattus norvegicus [9] = assay: Anti-inflammatory activity in Wistar rat assessed as inhibition of carrageenan-induced paw edema at 40 mg/kg, ip measured at 3 hrs post dose relative to control; type: functional
Rattus norvegicus [10] = assay: Anti-inflammatory activity in Wistar rat assessed as inhibition of carrageenan-induced paw edema at 40 mg/kg, ip measured at 1 hr post dose relative to control; type: functional
Mus musculus [11] = assay: Antiinflammatory activity in formalin-induced nociception Swiss CD-1 mouse model assessed as time spent on licking or biting formalin injected right hind paw during neurogenic phase at 10 mg/kg, ip measured during phase 2 (reference value: 158.3 +/- 12.34 sec); type: functional
Mus musculus [12] = assay: Antiinflammatory activity in formalin-induced nociception Swiss CD-1 mouse model assessed as time spent on licking or biting formalin injected right hind paw during neurogenic phase at 2.5 mg/kg, ip measured during phase 2 (reference value: 158.3 +/- 12.34 sec); type: functional
Rattus norvegicus [13] = assay: Anti-inflammatory activity in Wistar rat assessed as inhibition of carrageenan-induced paw edema at 100 mg/kg, ip measured at 3 hrs post dose relative to control; type: functional
[14] = biological target: Transient receptor potential cation channel subfamily A member 1 (Homo sapiens) (UniProt O75762); assay: Antagonist activity at human TRPA1 expressed in HEK293 cells assessed as decrease in flufenamic acid-evoked increase in intracellular calcium level at 10 uM measured for 180 secs with 1 sec interval by Fluo4-AM dye-based fluorescence assay relative to control; type: cell-based
Rattus norvegicus [15] = assay: Anti-inflammatory activity in Wistar rat assessed as inhibition of carrageenan-induced paw edema at 40 mg/kg, ip measured at 2 hrs post dose relative to control; type: functional
Rattus norvegicus [16] = assay: Anti-inflammatory activity in Wistar rat assessed as inhibition of carrageenan-induced paw edema at 100 mg/kg, ip measured at 1 hr post dose relative to control; type: functional
[17] = biological target: Transient receptor potential cation channel subfamily A member 1 (Homo sapiens) (UniProt O75762); assay: Antagonist activity at human TRPA1 expressed in HEK293 cells assessed as decrease in flufenamic acid-evoked increase in intracellular calcium level at 1 uM measured for 180 secs with 1 sec interval by Fluo4-AM dye-based fluorescence assay relative to control; type: cell-based
Mus musculus [18] = assay: Antiinflammatory activity in formalin-induced nociception Swiss CD-1 mouse model assessed as time spent on licking or biting formalin injected right hind paw during neurogenic phase at 10 mg/kg, ip measured during phase 1 (reference value: 97 +/- 6.86 sec); type: functional
Rattus norvegicus [19] = assay: Anti-inflammatory activity in Wistar rat assessed as inhibition of carrageenan-induced paw edema at 20 mg/kg, ip measured at 2 hrs post dose relative to control; type: functional
Rattus norvegicus [20] = assay: Anti-inflammatory activity in Wistar rat assessed as inhibition of carrageenan-induced paw edema at 20 mg/kg, ip measured at 3 hrs post dose relative to control; type: functional
Rattus norvegicus [21] = assay: Anti-inflammatory activity in Wistar rat assessed as inhibition of carrageenan-induced paw edema at 20 mg/kg, ip measured at 1 hr post dose relative to control; type: functional
Mus musculus [22] = assay: Antiinflammatory activity in formalin-induced nociception Swiss CD-1 mouse model assessed as time spent on licking or biting formalin injected right hind paw during neurogenic phase at 5 mg/kg, ip measured during phase 1 (reference value: 97 +/- 6.86 sec); type: functional
Rattus norvegicus [23] = assay: Anti-inflammatory activity in Wistar rat assessed as inhibition of carrageenan-induced paw edema at 100 mg/kg, ip measured at 2 hrs post dose relative to control; type: functional

Structure (SMILES) | IC50 [3] [µM] | IC50 [4] [µM] | inhibition [5] [%] | also measured
CC(C)C[C@H](CN)CC(=O)O | – | – | – | Activity (Rattus norvegicus [1]): Active; Activity (Rattus norvegicus [2]): Active
COc1nc2c(c(=O)n(C)c(=O)n2C)n1CC(=O)Nc1cccc(Cl)c1 | > 200 | > 200 | 2 | –
CCOc1nc2c(c(=O)n(C)c(=O)n2C)n1CC(=O)Nc1cccc(Cl)c1 | > 200 | > 200 | 5 | –
CCCCOc1nc2c(c(=O)n(C)c(=O)n2C)n1CCCC(=O)Nc1ccc(C(C)CC)cc1 (configuration not stated) | 110 | 20 | 14 | –
COc1nc2c(c(=O)n(C)c(=O)n2C)n1CCCC(=O)Nc1cccc(Cl)c1 | > 200 | > 200 | 9 | –
COc1nc2c(c(=O)n(C)c(=O)n2C)n1CCCC(=O)NCc1ccccc1Cl | > 200 | > 200 | 16 | –
CCOc1nc2c(c(=O)n(C)c(=O)n2C)n1CCCC(=O)Nc1ccc(C(C)C)cc1 | 32.3 | 96.3 | 10 | –
CCOc1nc2c(c(=O)n(C)c(=O)n2C)n1CCCC(=O)Nc1ccc(C(C)(C)C)cc1 | 42.5 | 54.3 | 0 | –
CC(C)c1ccc(NC(=O)Cn2cnc3c2c(=O)n(C)c(=O)n3C)cc1 | > 200 | > 200 | 43 | ED50 (Mus musculus [6]): 33.8 mg/kg; Time (Mus musculus [7]): 82.83 s; Time (Mus musculus [8]): 76.45 s; inhibition in vivo at 40 mg/kg (Rattus norvegicus [9]): 25.6%; inhibition in vivo at 40 mg/kg (Rattus norvegicus [10]): 12.1%; Time (Mus musculus [11]): 13.9 s; Time (Mus musculus [12]): 111.33 s; inhibition in vivo at 100 mg/kg (Rattus norvegicus [13]): 48.3%; inhibition [14]: 13%; inhibition in vivo at 40 mg/kg (Rattus norvegicus [15]): 23.5%; inhibition in vivo at 100 mg/kg (Rattus norvegicus [16]): 24.1%; inhibition [17]: 0%; Time (Mus musculus [18]): 71 s; inhibition in vivo at 20 mg/kg (Rattus norvegicus [19]): 0.02%; inhibition in vivo at 20 mg/kg (Rattus norvegicus [20]): 10%; inhibition in vivo at 20 mg/kg (Rattus norvegicus [21]): 4.7%; Time (Mus musculus [22]): 73.83 s; inhibition in vivo at 100 mg/kg (Rattus norvegicus [23]): 48.2%
COc1nc2c(c(=O)n(C)c(=O)n2C)n1CCCC(=O)Nc1ccc(C(C)(C)C)cc1 | 87.5 | 19.8 | 13 | –
CCCOc1nc2c(c(=O)n(C)c(=O)n2C)n1CCCC(=O)Nc1ccc(C(C)(C)C)cc1 | 21.1 | 7.76 | 52 | inhibition [14]: 5%; inhibition [17]: 5%
COc1nc2c(c(=O)n(C)c(=O)n2C)n1CC(=O)Nc1ccc(C(C)C)cc1 | > 200 | > 200 | 39 | inhibition [14]: 13%; inhibition [17]: 4%
